Test results published in ChEMBL document CHEMBL3259581 (Eur J Med Chem, 2014).

Legend:
[1] = target: T1, Prostaglandin G/H synthase 1 (Ovis aries) (UniProt P05979); test: Inhibition of ovine COX1 using arachidonic acid as substrate at 30 uM preincubated for 10 mins before substrate addition measured after 5 mins by EIA
T1 sequence (whole entry): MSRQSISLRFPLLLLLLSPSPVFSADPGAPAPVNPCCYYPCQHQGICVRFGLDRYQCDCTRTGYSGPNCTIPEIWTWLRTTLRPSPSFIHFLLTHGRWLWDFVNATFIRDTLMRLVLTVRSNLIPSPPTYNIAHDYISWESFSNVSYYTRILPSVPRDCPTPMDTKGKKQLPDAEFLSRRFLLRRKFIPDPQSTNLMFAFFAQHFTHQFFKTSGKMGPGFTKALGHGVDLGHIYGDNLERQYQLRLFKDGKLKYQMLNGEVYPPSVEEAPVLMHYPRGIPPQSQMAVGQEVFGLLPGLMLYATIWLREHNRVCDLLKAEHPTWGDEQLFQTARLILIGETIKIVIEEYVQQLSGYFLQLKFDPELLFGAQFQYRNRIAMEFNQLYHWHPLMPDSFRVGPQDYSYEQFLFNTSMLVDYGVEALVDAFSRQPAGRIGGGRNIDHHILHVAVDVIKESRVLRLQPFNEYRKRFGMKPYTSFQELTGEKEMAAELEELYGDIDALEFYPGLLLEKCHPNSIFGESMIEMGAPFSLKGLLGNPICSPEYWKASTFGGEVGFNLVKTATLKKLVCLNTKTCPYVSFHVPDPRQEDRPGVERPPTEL

[2] = target: T2, Prostaglandin G/H synthase 2 (Ovis aries) (UniProt P79208); conditions: 30 uM
T2 sequence (whole entry): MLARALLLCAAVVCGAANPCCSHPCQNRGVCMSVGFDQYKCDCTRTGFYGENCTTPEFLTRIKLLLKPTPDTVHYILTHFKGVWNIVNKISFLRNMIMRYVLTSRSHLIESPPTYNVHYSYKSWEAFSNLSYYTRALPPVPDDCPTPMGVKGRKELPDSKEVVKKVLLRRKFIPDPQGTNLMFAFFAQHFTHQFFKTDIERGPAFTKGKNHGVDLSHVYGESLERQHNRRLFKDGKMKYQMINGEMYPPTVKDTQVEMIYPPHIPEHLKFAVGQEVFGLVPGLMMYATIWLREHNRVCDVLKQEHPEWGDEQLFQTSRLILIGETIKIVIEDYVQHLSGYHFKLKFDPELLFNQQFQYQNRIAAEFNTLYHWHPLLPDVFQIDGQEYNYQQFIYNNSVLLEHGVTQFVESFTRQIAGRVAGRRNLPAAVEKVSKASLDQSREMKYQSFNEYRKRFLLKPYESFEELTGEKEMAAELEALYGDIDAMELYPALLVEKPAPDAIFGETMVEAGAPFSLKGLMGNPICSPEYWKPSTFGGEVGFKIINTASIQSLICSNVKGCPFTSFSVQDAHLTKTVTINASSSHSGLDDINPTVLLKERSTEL
Description: Inhibition of ovine COX2 using arachidonic acid as substrate at 30 uM preincubated for 10 mins before substrate addition measured after 5 mins by EIA

[3] = system: Rattus norvegicus; test: Antiinflammatory activity in Sprague-Dawley rat assessed as inhibition of carrageenan-induced paw edema at 150 umol/kg, po administered 1 hr before carrageenan challenge measured after 3 hrs; type: functional
[4] = system: Rattus norvegicus; test: Antiinflammatory activity in Sprague-Dawley rat assessed as inhibition of carrageenan-induced paw edema at 150 umol/kg, po administered 1 hr before carrageenan challenge measured after 5 hrs; type: functional
[5] = target: T3, Prostaglandin G/H synthase 1 (Ovis aries, UniProt P05979); test: Inhibition of ovine COX1 using arachidonic acid as substrate preincubated for 10 mins before substrate addition measured after 5 mins by EIA
T3 sequence (P05979 whole entry): T1 sequence (whole entry)

| inhibition [1] | inhibition [2] | IC50 [5] | SMILES | inhibition in vivo at 150 µmol/kg [3] | inhibition in vivo at 150 µmol/kg [4] |
| --- | --- | --- | --- | --- | --- |
| 27.2% | 62% |  | Cc1cc(OCc2ccccc2Br)c2c(c1)C(=O)c1cccc(OCc3ccccc3Br)c1C2=O |  |  |
|  |  |  | CC(C)Cc1ccc(C(C)C(=O)O)cc1 (stereo not drawn) [IBUPROFEN] | 32.3% | 43.5% |
| 68.2% | 59.4% | 27.4 µM | CC(=O)c1c(C)cc2cccc(O)c2c1O [NEPODIN] |  |  |
| 44.3% | 81.5% | > 30 µM | C=CCOc1cccc2c1C(=O)c1c(OCC=C)cc(C)cc1C2=O | 35.6% | 50.9% |
| 63.6% | 83.1% | 24.5 µM | CC(=O)c1c(C)cc2cccc(OCc3ccccc3Br)c2c1O | 25.5% | 46.5% |
| 58.4% | 42.9% |  | CCOc1c(C(C)=O)c(C)cc2cccc(O)c12 |  |  |
| 51.4% | 47% |  | CCCOc1c(C(C)=O)c(C)cc2cccc(O)c12 |  |  |
| 39.6% | 58.7% |  | CCCOc1cccc2c1C(=O)c1c(OCCC)cc(C)cc1C2=O |  |  |
| 67.1% | 82.1% | 22.2 µM | CC(=O)c1c(C)cc2cccc(OCc3cccc(Cl)c3)c2c1O | 26.6% | 37% |
| 83.4% | 89.9% | 15.2 µM | CC(=O)c1c(C)cc2cccc(OCc3ccccc3)c2c1O | 30.3% | 54.2% |
| 34.9% | 64.9% |  | CC(=O)c1c(C)cc2cccc(O)c2c1OCc1cccc(Cl)c1 |  |  |
| 62.2% | 54.9% |  | CC(=O)c1c(C)cc2cccc(O)c2c1OC(C)C |  |  |
| 40.2% | 37.9% |  | CCCCOc1c(C(C)=O)c(C)cc2cccc(O)c12 |  |  |
| 65.5% | 55.5% |  | COc1c(C(C)=O)c(C)cc2cccc(O)c12 |  |  |
| 70.9% | 62.6% |  | CC(=O)c1c(C)cc2cccc(OC(C)C)c2c1O |  |  |
| 62.1% | 54.2% |  | CCOc1cccc2cc(C)c(C(C)=O)c(O)c12 |  |  |
| 43.7% | 55.5% |  | CCOc1cccc2c1C(=O)c1c(OCC)cc(C)cc1C2=O |  |  |
| 64.2% | 77.8% | > 30 µM | Cc1cc(OCc2ccc(I)cc2)c2c(c1)C(=O)c1cccc(OCc3ccc(I)cc3)c1C2=O | 36.1% | 54.6% |
| 28.5% | 31.9% |  | CCCCOc1cccc2cc(C)c(C(C)=O)c(O)c12 |  |  |
| 37.2% | 67.5% |  | CC(=O)c1c(C)cc2cccc(O)c2c1OCc1ccccc1Br |  |  |
| 60.2% | 68.2% |  | CC(=O)c1c(C)cc2cccc(O)c2c1OCc1ccccc1 |  |  |
| 67.1% | 61.5% |  | COCOc1c(C(C)=O)c(C)cc2cccc(O)c12 |  |  |
| 25.4% | 61% |  | Cc1cc(OCc2cccc(Cl)c2)c2c(c1)C(=O)c1cccc(OCc3cccc(Cl)c3)c1C2=O |  |  |
| 53.5% | 35.4% |  | CCCOc1cccc2cc(C)c(C(C)=O)c(O)c12 |  |  |
| 69.8% | 61.7% |  | COc1cccc2cc(C)c(C(C)=O)c(O)c12 |  |  |
| 29.4% | 42.1% | 46.2 µM | Cc1cc(O)c2c(c1)C(=O)c1cccc(O)c1C2=O [CHRYSOPHANOL] |  |  |
| 59.2% | 62.1% |  | COc1cccc2c1C(=O)c1c(OC)cc(C)cc1C2=O |  |  |
| 80.6% | 75% | 17.2 µM | COCOc1cccc2cc(C)c(C(C)=O)c(O)c12 | 36.4% | 55.8% |
| 26% | 42% |  | CCCCOc1cccc2c1C(=O)c1c(OCCCC)cc(C)cc1C2=O |  |  |
| 41.4% | 76.5% | > 30 µM | Cc1cc(OCc2ccccc2)c2c(c1)C(=O)c1cccc(OCc3ccccc3)c1C2=O | 28.2% | 45.1% |
